# Key:
# [1] = biological target: Glutamate receptor 4 (Homo sapiens) (UniProt P48058); test: Effective dose required for the action of AMPA receptor antagonistic activity in maximal electroshock anticonvulsant assay; assay type: functional
# [2] = biological target: Glutamate receptor ionotropic, NMDA 2C (Rattus norvegicus) (UniProt Q00961); test: Effective dose required for the action of NMDA receptor activity in maximal electroshock anticonvulsant assay; assay type: functional
# Glutamate receptor ionotropic, NMDA 2C (Rattus norvegicus), sequence (Q00961 20-1237 limits assumed): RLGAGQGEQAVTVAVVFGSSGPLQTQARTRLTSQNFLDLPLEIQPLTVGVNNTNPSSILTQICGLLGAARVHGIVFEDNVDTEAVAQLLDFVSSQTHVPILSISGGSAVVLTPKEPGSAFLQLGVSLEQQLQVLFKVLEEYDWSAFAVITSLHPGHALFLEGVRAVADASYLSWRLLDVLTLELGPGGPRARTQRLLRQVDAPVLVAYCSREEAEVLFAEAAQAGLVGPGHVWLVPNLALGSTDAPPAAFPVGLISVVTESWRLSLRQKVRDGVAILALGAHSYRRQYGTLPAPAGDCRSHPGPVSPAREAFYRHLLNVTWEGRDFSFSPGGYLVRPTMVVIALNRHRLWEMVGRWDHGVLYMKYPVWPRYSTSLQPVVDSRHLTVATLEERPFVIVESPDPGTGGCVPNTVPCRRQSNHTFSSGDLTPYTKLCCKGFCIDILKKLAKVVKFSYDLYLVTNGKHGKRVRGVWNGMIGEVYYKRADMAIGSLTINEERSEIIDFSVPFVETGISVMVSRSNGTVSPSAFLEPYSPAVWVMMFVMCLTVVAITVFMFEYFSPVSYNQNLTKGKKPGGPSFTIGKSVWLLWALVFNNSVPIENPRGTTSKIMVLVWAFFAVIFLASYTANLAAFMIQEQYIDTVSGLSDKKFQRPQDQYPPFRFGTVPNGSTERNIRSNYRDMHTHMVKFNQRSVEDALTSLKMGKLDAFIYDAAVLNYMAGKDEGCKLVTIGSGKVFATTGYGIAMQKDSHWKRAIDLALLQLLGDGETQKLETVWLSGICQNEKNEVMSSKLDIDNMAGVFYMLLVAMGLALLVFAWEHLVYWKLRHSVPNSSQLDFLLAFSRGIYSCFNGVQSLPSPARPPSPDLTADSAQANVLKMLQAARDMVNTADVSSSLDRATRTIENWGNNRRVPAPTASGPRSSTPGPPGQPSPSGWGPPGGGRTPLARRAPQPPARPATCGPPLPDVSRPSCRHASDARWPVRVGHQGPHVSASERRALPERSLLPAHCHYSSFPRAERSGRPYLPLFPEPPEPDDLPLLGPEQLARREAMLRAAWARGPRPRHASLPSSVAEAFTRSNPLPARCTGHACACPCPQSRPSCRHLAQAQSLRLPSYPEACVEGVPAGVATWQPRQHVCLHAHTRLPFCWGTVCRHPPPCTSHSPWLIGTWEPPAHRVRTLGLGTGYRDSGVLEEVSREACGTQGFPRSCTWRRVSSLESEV
# Glutamate receptor 4 (Homo sapiens), sequence (P48058 whole entry): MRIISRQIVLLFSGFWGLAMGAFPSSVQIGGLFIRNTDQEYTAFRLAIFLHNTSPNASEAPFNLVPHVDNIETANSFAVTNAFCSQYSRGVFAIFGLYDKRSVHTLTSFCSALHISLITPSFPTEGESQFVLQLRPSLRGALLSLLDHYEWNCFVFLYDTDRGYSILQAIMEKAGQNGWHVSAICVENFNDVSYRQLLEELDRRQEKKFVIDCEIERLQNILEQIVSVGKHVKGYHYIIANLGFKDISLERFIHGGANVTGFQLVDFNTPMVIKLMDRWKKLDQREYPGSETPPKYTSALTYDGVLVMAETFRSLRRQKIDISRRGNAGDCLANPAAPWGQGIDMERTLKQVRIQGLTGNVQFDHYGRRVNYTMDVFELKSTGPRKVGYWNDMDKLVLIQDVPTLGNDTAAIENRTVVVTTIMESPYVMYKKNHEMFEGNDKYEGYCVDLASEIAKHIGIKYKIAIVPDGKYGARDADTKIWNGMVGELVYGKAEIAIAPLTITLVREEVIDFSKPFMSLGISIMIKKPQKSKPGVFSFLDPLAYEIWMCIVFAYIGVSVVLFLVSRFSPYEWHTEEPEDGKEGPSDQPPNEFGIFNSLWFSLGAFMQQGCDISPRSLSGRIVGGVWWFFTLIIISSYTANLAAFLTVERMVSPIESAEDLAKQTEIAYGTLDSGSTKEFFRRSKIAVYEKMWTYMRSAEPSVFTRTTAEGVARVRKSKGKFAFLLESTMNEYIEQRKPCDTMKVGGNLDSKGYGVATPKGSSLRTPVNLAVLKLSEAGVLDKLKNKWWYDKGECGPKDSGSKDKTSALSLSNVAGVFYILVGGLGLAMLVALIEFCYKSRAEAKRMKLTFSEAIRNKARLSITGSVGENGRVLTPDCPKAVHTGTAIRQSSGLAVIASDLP
SMILES,ED50 [1] [mg/kg],ED50 [2] [mg/kg]
CN1CCc2c([N+](=O)[O-])cc3nc(O)c(O)nc3c2C1,0.44,–
NS(=O)(=O)c1cccc2c1c([N+](=O)[O-])cc1nc(O)c(O)nc12,–,13.1
